Measurements: patent publication US20140342914A1, “Method of Plant Growth with Bifenthrin” (priority 2013, published 2014)

Test system: Corn seeds
Test: Corn seedling growth enhancement, in-furrow application at different rates (Example 2)
Assay type: in vivo
Conditions: average of 8 replications
Text: Ten corn seeds (Pioneer variety 33M53, treated with PONCHO® 250 Insecticide) were evenly spaced in a single, 2 cm deep, furrow in a planter box (25.5 cm by 11.5 cm) containing steam treated loam soil (pH 6.4, 4.3% organic matter. An aqueous suspension of CAPTURE® LFR Insecticide (17.5% bifenthrin) was sprayed as a T-band in-furrow application onto the uncovered seeds at a rate of 269 g ai/ha using a DeVries overhead track sprayer at a pressure of 40 psi and an application volume of 200 l/ha. The seeds were covered with soil and the planter boxes placed onto a lab cart with overhead lighting set at 14 hours on and 10 hours off and a room temperature of 21° C. Three replicate planter boxes (total of 30 seeds) were treated and three control planter boxes to which no CAPTURE® Insecticide was applied were included in the test. Each planter box was watered with 146 mL of tap water and re-watered with 50 mL of tap water along the furrow at 4 days after treatment (DAT). At four DAT there were 19 emerged seedlings in the treated planter boxes and 16 emerged seedlings in the untreated planter boxes. At five DAT all seeds had emerged and the seedlings were removed from the soil and the roots were gently rinsed in tap water to remove the soil. The seedlings were placed onto paper and the roots and shoots were measured from the seed to the tip of the tallest leaf and from the seed to the tip of the longest root and each seedling was weighed. Table 1 below summarizes the average shoot height; root length and seedling wet weight of the treated and untreated seeds.
In a manner similar to Example 1, Corn seeds were treated in-furrow with different rates of CAPTURE® LFR or test solutions of technical bifenthrin (96% purity) dissolved in acetone and diluted with distilled water containing 0.1% Tween® 20 (Polyoxylethylene-sorbitan monolaurate available from SigmaAldrich). There were 8 replications of each treatment including the untreated control. Table 2 below summarizes the average shoot height, root length and seedling weight of the treated and untreated seeds.

Compound: Cc1c(COC(=O)[C@@H]2[C@H](/C=C(\Cl)C(F)(F)F)C2(C)C)cccc1-c1ccccc1 (racemic) [Technical Bifenthrin, 2-methylbiphenyl-3-ylmethyl (Z)-(1RS)-cis-3-(2-chloro-3,3,3-trifluoroprop-1-enyl)-2,2-dimethyl cyclopropanecarboxylate]
- Root Length (4.68 g ai/ha in-furrow): 20.8 cm
- Seedling Weight (4.68 g ai/ha in-furrow): 1.1 gm
- Shoot Height (4.68 g ai/ha in-furrow): 9.2 cm
- Root Length (18.75 g ai/ha in-furrow): 20.7 cm
- Seedling Weight (18.75 g ai/ha in-furrow): 1.1 gm
- Shoot Height (18.75 g ai/ha in-furrow): 9.5 cm
- Root Length (75 g ai/ha in-furrow): 21.5 cm
- Seedling Weight (75 g ai/ha in-furrow): 1.2 gm
- Shoot Height (75 g ai/ha in-furrow): 9.6 cm
- Root Length (300 g ai/ha in-furrow): 21.8 cm
- Seedling Weight (300 g ai/ha in-furrow): 1.1 gm
- Shoot Height (300 g ai/ha in-furrow): 9.5 cm
- Root Length (1200 g ai/ha in-furrow): 22.3 cm
- Seedling Weight (1200 g ai/ha in-furrow): 1.2 gm
- Shoot Height (1200 g ai/ha in-furrow): 9.9 cm
